Literature values in patent publication US10307432B2, “Stabilized liquid fosaprepitant formulations” (Cipla Limited, priority 2015, dated 2019).

Key:
[1] = test system: serotonin, dopamine or corticosteroid receptors
[2] = after an IV infusion

Row | SMILES | affinity for serotonin, dopamine or corticosteroid receptors [1] | time of conversion to aprepitant [2]
1 | C[C@@H](O[C@H]1OCCN(Cc2n[nH]c(=O)[nH]2)[C@H]1c1ccc(F)cc1)c1cc(C(F)(F)F)cc(C(F)(F)F)c1 [Aprepitant] | little or no affinity | 
2 | C[C@@H](O[C@H]1OCCN(Cc2nc(O)n(P(=O)(O)O)n2)[C@H]1c1ccc(F)cc1)c1cc(C(F)(F)F)cc(C(F)(F)F)c1 [Fosaprepitant] |  | less than 30 minutes
